Measurements reported in patent publication US9085540B2, “Pyrazinecarboxamide compound” (Astellas Pharma Inc., priority 2012, dated 2015).

Tests used:
[1] = tested on: Ba/F3 cells expressing EGFR T790M/L858R mutation kinase; assay: Inhibition of EGFR T790M/L858R mutation kinase-dependent cell proliferation (Cell Titer-Glo); type: cell-based; details: Mus musculus, BaF3, 48 h, cultured 2 days
Experimental: (§1) In a 96-well plate (Iwaki), Ba/F3 cells were seeded at 500 cells per well in an RPMI1640 medium (Invitrogen) containing 10% fetal bovine serum, followed by the addition of the test compound (final concentrations ranging from 1 μM to 0.1 nM) and DMSO which was a solvent of the test compound as a negative control. In the presence of 5% CO2, the cells were cultured at 37° C. for 2 days. A cell counting reagent (Cell Titer-Glo; Promega) was added thereto, and the light emitting intensity was measured using a luminometer (Envison or ARVO; PerkinElmer Inc.). […] The inhibitory rate of the test compound was calculated and the concentration causing 50% inhibition (IC50 value) was determined by a logistic regression method.

EGFR [T790M/L858R] = EGFR [T790M/L858R] (Homo sapiens (Human), UniProt P00533, L858R/T790M); assay: Inhibitory activity on EGFR T790M/L858R mutation kinase (LabChip peptide substrate phosphorylation); type: biochemical; details: EGFR [T790M/L858R] enzyme, 2 hours preincubation, ATP 1000 μM
Experimental: The phosphorylation activity on the peptide substrate of EGFR was investigated using LabChip (trademark) Systems (Caliper Life Sciences, Inc.). […] (Carna Biosciences, Inc.) was used. […] Then, the substrate and the ATP solution were added thereto, followed by reaction for 1 hour. An ATP concentration of 1000 μM was used. A reaction liquid containing the enzyme protein but no test compound (in which the DMSO alone was added as a solvent at 0.4% in place of the test compound) was prepared, followed by reaction in the same manner with or without ATP addition. […] The concentration causing 50% inhibition (IC50) was calculated for the test compound by a logistic regression method.

[2] = tested on: Ba/F3 cells expressing EGFR T790M/del19 mutation kinase; assay: Inhibition of EGFR T790M/del19 mutation kinase-dependent cell proliferation (Cell Titer-Glo); type: cell-based; details: Mus musculus, BaF3, 48 h; Ba/F3 cells expressing EGFR T790M/del19, cultured 2 days
Experimental: as §1

[3] = tested on: H1975 cells (EGFR T790M mutation-expressing) subcutaneous tumor; assay: Anti-tumor test on EGFR T790M mutation-expressing H1975 cell cancer-bearing mice; type: in vivo; details: Mus musculus, NCI-H1975, 336 h; H1975 cancer-bearing nude mice, oral 10 mg/kg once a day for 14 days; read-out: inhibitory rate (tumor volume)
Experimental: 3×10^6 Cells of H1975 suspended in PBS were inoculated subcutaneously by injection to the back of 5-week old male […] nude mice (Charles River Laboratories Japan, Inc.). After 10 days of the inoculation, the administration of the test compound was initiated. The test was carried out in the solvent group and the test compound groups, with 5 animals per group. The test compounds were each mixed in a solvent of 0.5% aqueous methyl cellulose solution or a mixed solvent of polyethyleneglycol:N-methylpyrrolidone=90:10, and administered orally at a dose of 10 mg/kg. Administrations were performed once a day for 14 days, and the body weight and the tumor diameter were measured roughly every other day. The tumor volume was calculated using the following formula. [Tumor volume (mm^3)]=[Tumor major axis (mm)]×[Tumor minor axis (mm)]^2×0.5

Sequence of EGFR [T790M/L858R] (P00533 25-1210 T790M/L858R): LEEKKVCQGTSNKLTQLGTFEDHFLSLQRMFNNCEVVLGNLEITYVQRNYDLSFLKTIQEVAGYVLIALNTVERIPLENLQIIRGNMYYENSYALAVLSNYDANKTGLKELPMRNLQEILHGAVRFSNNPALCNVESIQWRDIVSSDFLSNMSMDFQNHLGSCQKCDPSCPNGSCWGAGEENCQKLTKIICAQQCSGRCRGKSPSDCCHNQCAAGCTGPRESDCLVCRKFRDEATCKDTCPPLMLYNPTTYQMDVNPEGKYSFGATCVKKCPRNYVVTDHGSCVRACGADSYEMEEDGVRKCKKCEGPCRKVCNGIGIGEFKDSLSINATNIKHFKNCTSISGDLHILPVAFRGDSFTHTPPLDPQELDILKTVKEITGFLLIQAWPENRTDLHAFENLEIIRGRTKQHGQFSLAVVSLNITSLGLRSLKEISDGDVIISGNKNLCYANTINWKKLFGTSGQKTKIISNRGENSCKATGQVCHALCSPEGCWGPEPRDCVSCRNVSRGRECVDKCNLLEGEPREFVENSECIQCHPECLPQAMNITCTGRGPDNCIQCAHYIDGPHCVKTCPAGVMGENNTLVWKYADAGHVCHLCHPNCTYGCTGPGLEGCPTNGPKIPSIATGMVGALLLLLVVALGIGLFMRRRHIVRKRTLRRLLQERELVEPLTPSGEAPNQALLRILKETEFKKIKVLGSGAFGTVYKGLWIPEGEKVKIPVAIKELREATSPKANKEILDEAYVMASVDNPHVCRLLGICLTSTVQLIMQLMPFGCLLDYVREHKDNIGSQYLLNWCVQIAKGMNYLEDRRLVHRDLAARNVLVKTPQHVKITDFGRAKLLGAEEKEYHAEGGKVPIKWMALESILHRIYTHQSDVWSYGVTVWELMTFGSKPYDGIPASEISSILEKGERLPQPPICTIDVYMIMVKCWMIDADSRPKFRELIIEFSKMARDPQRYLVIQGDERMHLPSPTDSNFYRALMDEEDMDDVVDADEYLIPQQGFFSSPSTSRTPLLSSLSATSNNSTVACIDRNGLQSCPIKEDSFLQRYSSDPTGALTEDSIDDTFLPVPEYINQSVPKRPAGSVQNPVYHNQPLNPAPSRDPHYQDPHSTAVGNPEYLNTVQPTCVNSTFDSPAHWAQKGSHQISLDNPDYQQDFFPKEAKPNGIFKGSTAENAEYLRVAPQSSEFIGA

| SMILES | IC50 [1] | IC50 (EGFR [T790M/L858R]) | IC50 [2] | inhibition in vivo at 10 mg/kg [3] |
| --- | --- | --- | --- | --- |
| C=CC(=O)Nc1cccc(Oc2nc(Nc3ccc(N4CCN(C)CC4)cc3)c(C(N)=O)nc2CC)c1 [Example 1, 5-[3-(acryloylamino)phenoxy]-6-ethyl-3-{[4-(4-methylpiperazin-1-yl)phenyl]amino}pyrazine-2-carboxamide] | 2.2 nM | 1.3 nM | 1.4 nM | 24% |
| CCc1nc(C(N)=O)c(Nc2ccc(N3CCN(C)CC3)cc2)nc1Oc1cccc(NC(=O)/C=C/CN(C)C)c1 [Example 3, 5-(3-{[(2E)-4-(dimethylamino)buta-2-enoyl]amino}phenoxy)-6-ethyl-3-{[4-(4-methylpiperazin-1-yl)phenyl]amino}pyrazine-2-carboxamide] | 17 nM | 1.4 nM | 8.8 nM |  |
| C=CC(=O)Nc1cccc(Oc2nc(Nc3ccc(N4CCN(C)CC4)cc3)c(C(N)=O)nc2CC)c1C [Example 15] | 1.1 nM | 1.2 nM | 0.77 nM | 41% |
| C=CC(=O)N1CCC(c2nc(Nc3ccc(N4CCC(N5CCN(C)CC5)CC4)c(C)c3)c(C(N)=O)nc2CC)CC1 [Example 24] |  |  | 0.48 nM | 100% |
| C=CC(=O)Nc1cccc(Oc2cnc(C(N)=O)c(Nc3ccc(N4CCN(C)CC4)cc3)n2)c1 [Example 26] | 0.92 nM | 1.1 nM | 0.52 nM |  |
| C=CC(=O)Nc1cccc(Oc2nc(Nc3ccc(OC)c(N4CCN(C)CC4)c3)c(C(N)=O)nc2CC)c1 [Example 42] | 1.4 nM | 1.2 nM | 1.3 nM |  |
| C=CC(=O)Nc1cccc(Oc2nc(Nc3ccc(N4CCN(CC)CC4)cc3)c(C(N)=O)nc2CC)c1 [Example 43] |  |  | 0.51 nM |  |
| C=CC(=O)N1CC[C@@H](Oc2nc(Nc3ccc(N4CCC(N5CCN(C)CC5)CC4)cc3)c(C(N)=O)nc2CC)C1 [Example 54] | 4.5 nM | 1.7 nM | 3.2 nM | 74% |
| C=CC(=O)Nc1cccc(Oc2nc(Nc3cnn(C4CCN(C)CC4)c3)c(C(N)=O)nc2C(C)C)c1 [Example 56] | 2 nM | 1.3 nM | 1.6 nM |  |

Further lines, with some results ahead:

| IC50 [1] | IC50 (EGFR [T790M/L858R]) | IC50 [2] | SMILES | inhibition in vivo at 10 mg/kg [3] |
| --- | --- | --- | --- | --- |
|  |  | 0.66 nM | C=CC(=O)Nc1cccc(Oc2nc(Nc3ccc(N4CCN(C)[C@@H](C)C4)cc3)c(C(N)=O)nc2CC)c1 [Example 63] |  |
|  |  | 0.42 nM | C=CC(=O)Nc1cccc(Oc2nc(Nc3ccc(N4CCN(C)[C@H](C)C4)cc3)c(C(N)=O)nc2CC)c1 [Example 64] | 28% |
|  | 1.3 nM |  | C=CC(=O)N1CCC[C@@H](Oc2nc(Nc3ccc(N4CCC(N5CCN(C)CC5)CC4)cc3)c(C(N)=O)nc2CC)C1 [Example 79] | 30% |
|  | 1.2 nM |  | C=CC(=O)N1CCC[C@@H](Oc2nc(Nc3ccc(N4CCC(N5CCN(C)CC5)CC4)c(C)c3)c(C(N)=O)nc2CC)C1 [Example 80] | 27% |
|  | 1.5 nM |  | C=CC(=O)Nc1ccc(F)c(Oc2nc(Nc3ccc(N4CCN(C)CC4)cc3)c(C(N)=O)nc2CC)c1 [Example 82] | 84% |
